Experimental findings from patent US10428080B2, “TBK/IKK inhibitor compounds and uses thereof” (Merck Patent GmbH, priority 2015, dated 2019) are described below.

Counter-ions that a name gives are not always drawn. Like-named read-outs stand apart in the source and are kept apart here. Some results are limits rather than exact numbers.

Experiment [1] deals with phosphorylation of the IRF-3 protein in MDA-MB-468 cells. The experiment is described as follows: pIRF3 immunocytochemistry cell based assay. The settings on record: MDA-MB-468 cells, Poly(I:C) stimulation, read-out: pIRF3 IC50. In outline:
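After 2 h stimulation with Poly(I:C) (10 ug/ml), following 1 h compound pre-treatment (10-point, 3-fold dilution, top 10 uM), MDA-MB-468 cells were fixed and stained with anti-pIRF3 antibody. pIRF3 fluorescence was normalized to PI staining or cell count on an Acumen cytometer. IC50 curves were derived from this.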

A further experiment deals with T1, TBK1 (Homo sapiens, UniProt Q9UHD2).
T1 sequence (Q9UHD2 1-729): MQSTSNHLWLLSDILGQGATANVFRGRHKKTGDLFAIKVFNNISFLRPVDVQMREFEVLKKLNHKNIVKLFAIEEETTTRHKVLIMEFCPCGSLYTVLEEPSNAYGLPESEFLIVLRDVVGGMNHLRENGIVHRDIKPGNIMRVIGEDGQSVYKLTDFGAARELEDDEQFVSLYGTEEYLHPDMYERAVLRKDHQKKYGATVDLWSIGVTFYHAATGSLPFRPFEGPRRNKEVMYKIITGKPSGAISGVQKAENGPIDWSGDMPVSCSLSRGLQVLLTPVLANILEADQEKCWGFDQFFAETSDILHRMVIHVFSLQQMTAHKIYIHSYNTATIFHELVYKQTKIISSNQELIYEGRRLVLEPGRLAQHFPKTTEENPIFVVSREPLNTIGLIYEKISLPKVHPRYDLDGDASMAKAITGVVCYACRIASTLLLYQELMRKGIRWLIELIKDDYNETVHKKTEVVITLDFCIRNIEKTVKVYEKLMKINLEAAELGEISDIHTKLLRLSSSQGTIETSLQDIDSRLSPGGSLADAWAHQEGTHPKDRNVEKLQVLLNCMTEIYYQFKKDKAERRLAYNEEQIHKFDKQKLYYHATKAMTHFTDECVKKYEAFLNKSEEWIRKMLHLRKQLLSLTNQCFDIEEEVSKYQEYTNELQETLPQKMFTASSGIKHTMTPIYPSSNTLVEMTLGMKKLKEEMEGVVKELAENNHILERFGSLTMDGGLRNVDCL
The experiment is described as follows: TBK Biochemical Assay. As to conditions: read-out: TBK1 IC50. The essentials:
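Caliper LabChip mobility-shift readout of substrate and product after 90 min of TBK1 reaction at 25° C and stop-buffer addition. Compounds tested in 1:4 serial dilution over 10 points from 30 uM final at 1% DMSO; staurosporine 10 uM final defines full inhibition.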

Another experiment addresses T2, IKKε (Homo sapiens, UniProt Q14164).
T2 sequence (Q14164 1-716): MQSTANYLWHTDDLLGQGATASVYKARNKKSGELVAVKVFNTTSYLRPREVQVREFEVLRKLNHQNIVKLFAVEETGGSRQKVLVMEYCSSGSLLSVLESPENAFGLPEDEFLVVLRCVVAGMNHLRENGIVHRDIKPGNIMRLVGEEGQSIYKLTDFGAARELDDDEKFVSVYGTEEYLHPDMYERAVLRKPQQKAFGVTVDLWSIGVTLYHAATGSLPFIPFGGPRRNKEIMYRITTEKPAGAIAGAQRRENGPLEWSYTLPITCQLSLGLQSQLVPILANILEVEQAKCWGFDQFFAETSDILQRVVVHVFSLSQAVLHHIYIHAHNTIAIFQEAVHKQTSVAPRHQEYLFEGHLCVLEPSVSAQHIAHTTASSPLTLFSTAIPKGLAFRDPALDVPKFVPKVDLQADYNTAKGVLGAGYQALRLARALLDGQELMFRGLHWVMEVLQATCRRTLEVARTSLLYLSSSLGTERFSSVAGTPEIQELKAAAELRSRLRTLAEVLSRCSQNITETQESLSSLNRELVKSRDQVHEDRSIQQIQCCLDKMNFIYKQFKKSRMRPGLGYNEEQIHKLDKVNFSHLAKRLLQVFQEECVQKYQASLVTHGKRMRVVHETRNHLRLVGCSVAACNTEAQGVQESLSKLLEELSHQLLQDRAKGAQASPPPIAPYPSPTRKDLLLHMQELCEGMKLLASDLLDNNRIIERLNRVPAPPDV
The experiment in a line: IKKe Biochemical Assay. The settings on record: read-out: IKKε IC50. In outline:
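Activity was measured as mobility-shift separation of phosphorylated from unphosphorylated substrate on a LabChip EZ Reader. Compound was titrated from 30 uM final in 10 points, 1:4 steps, with 1% DMSO, and enzyme plus substrate reacted 90 min at 25° C before stop buffer. Control wells held 10 uM staurosporine.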

The term IC50 denotes the midpoint of a concentration-inhibition curve. As to `COc1cc(C(=O)NC2CCN(C(=O)OC(C)(C)C)C2)ccc1-c1cc2nccc(-c3ccc(OC4CCOCC4)c(C#N)c3)c2o1` (stereo not drawn) [Compound 125, 3-(4-{7-[3-Cyano-4-(tetrahydro-pyran-4-yloxy)-phenyl]-furo[3,2-b]pyridin-2-yl}-3-methoxy-benzoylamino)-pyrrolidine-1-carboxylic acid tert-butyl ester], the results for the IC50 (in experiment [1] (Homo sapiens); at TBK1; at IKKε) were 100 to 1000 nM, below 100 nM and below 100 nM, respectively.

Regarding `COc1cc(C(=O)NC2C3CNCC32)ccc1-c1cc2nccc(-c3ccc(OC4CCOCC4)c(C#N)c3)c2o1` (stereo not drawn) [Compound 84, N-(3-Aza-bicyclo[3.1.0]hex-6-yl)-4-{7-[3-cyano-4-(tetrahydro-pyran-4-yloxy)-phenyl]-furo[3,2-b]pyridin-2-yl}-3-methoxy-benzamide hydrochloride], the 50% inhibitory concentration (IC50) in experiment [1] (Homo sapiens) was 100 to 1000 nM; on TBK1 it was below 100 nM; at IKKε, below 100 nM.

With `COc1cc(C(=O)NC2CCN(C)C2)ccc1-c1cc2nccc(-c3ccc(OC4CCOCC4)c(C#N)c3)c2o1` (stereo not drawn) [Compound 64, 4-{7-[3-Cyano-4-(tetrahydro-pyran-4-yloxy)-phenyl]-furo[3,2-b]pyridin-2-yl}-3-methoxy-N-(1-methyl-pyrrolidin-3-yl)-benzamide], the IC50 in experiment [1] (Homo sapiens) was 100 to 1000 nM; at TBK1, below 100 nM; at IKKε it was below 100 nM.

`CN(C)C(=O)c1ccc(-c2cc3nccc(-c4ccc(NC5CCOC6(CC6)C5)c(C#N)c4)c3o2)cc1` (stereo not drawn) [Compound 286, 4-[7-[3-cyano-4-([4-oxaspiro[2.5]octan-7-yl]amino)phenyl]furo[3,2-b]pyridin-2-yl]-N,N-dimethylbenzamide]: the IC50 in experiment [1] (Homo sapiens) fell in the range of 1000 to 5000 nM; on TBK1, 100 to 1000 nM; at IKKε, 100 to 1000 nM.

Turning to `COc1cc(C(=O)N(C)C)ccc1-c1cc2nccc(-c3ccc(NC4CCNC4)c(C#N)c3)c2o1` (stereo not drawn) [Compound 521], the IC50 (in experiment [1] (Homo sapiens); on TBK1; on IKKε) was below 100 nM throughout.

For the compound `COc1cc(C(=O)N2CCN(C)CC2)cnc1-c1cc2nccc(-c3ccc(N4CCC(F)C4)c(C#N)c3)c2o1` (stereo not drawn) [Compound 460, 2-(3-fluoropyrrolidin-1-yl)-5-(2-[3-methoxy-5-[(4-methylpiperazin-1-yl)carbonyl]pyridin-2-yl]furo[3,2-b]pyridin-7-yl)benzonitrile], the IC50 in experiment [1] (Homo sapiens) is 100 to 1000 nM; at TBK1 it was below 100 nM; on IKKε it was below 100 nM.

As for `COc1cc(C(=O)N2CC[C@H](N(C)C)C2)cnc1-c1cc2nccc(-c3ccc(N4CC[C@H](F)C4)c(C#N)c3)c2o1` [Compound 447, 5-{2-[5-((S)-3-Dimethylamino-pyrrolidine-1-carbonyl)-3-methoxy-pyridin-2-yl]-furo[3,2-b]pyridin-7-yl}-2-((S)-3-fluoro-pyrrolidin-1-yl)-benzonitrile], the IC50 (in experiment [1] (Homo sapiens); at TBK1; at IKKε) was below 100 nM in each case.

`COc1cc(C(=O)N(C)C)ncc1-c1cc2nccc(-c3ccc(OC4CCNC4)c(C#N)c3)c2o1` (stereo not drawn) [Compound 429, 5-[7-[3-cyano-4-(pyrrolidin-3-yloxy)phenyl]furo[3,2-b]pyridin-2-yl]-4-methoxy-N,N-dimethylpyridine-2-carboxamide]: the figures for the IC50 (in experiment [1] (Homo sapiens); at TBK1; on IKKε) were 100 to 1000 nM, below 100 nM and below 100 nM, respectively.

For the compound `COc1cc(C(=O)N(C)C)ccc1-c1cc2nccc(-c3ccc(NCC4CCOC4)c(C#N)c3)c2o1` (stereo not drawn) [Compound 36], the IC50 in experiment [1] (Homo sapiens) is 100 to 1000 nM; on TBK1, below 100 nM; at IKKε, below 100 nM.

For the compound `COc1cc(C(=O)NC2CCOCC2O)ccc1-c1cc2nccc(-c3ccc(OC4CCOCC4)c(C#N)c3)c2o1` (stereo not drawn) [Compound 11, 4-{7-[3-Cyano-4-(tetrahydro-pyran-4-yloxy)-phenyl]-furo[3,2-b]pyridin-2-yl}-N-(3-hydroxy-tetrahydro-pyran-4-yl)-3-methoxy-benzamide], the figures for the half-inhibitory concentration (IC50) (in experiment [1] (Homo sapiens); on TBK1; on IKKε) were 100 to 1000 nM, below 100 nM and below 100 nM, respectively.

Consider `COc1cc(C(=O)NC2CN3CCC2CC3)cnc1-c1cc2nccc(-c3ccc(N4CC[C@H](F)C4)c(C#N)c3)c2o1` (stereo partly drawn) [Compound 441, N—(R)-1-Aza-bicyclo[2.20.2]oct-3-yl-6-{7-[3-cyano-4-((S)-3-fluoro-pyrrolidin-1-yl)-phenyl]-furo[3,2-b]pyridin-2-yl}-5-methoxy-nicotinamide], for which the 50% inhibitory concentration (IC50) in experiment [1] was 100 to 1000 nM; at TBK1, below 100 nM; on IKKε, below 100 nM.

In the case of `COc1cc(C(=O)NNC(=O)OC(C)(C)C)ccc1-c1cc2nccc(-c3ccc(OC4CCOCC4)c(C#N)c3)c2o1` [Compound 67, N′-(4-{7-[3-Cyano-4-(tetrahydro-pyran-4-yloxy)-phenyl]-furo[3,2-b]pyridin-2-yl}-3-methoxy-benzoyl)-hydrazinecarboxylic acid tert-butyl ester], the results for the IC50 (in experiment [1] (Homo sapiens); at TBK1; at IKKε) were 100 to 1000 nM, below 100 nM and below 100 nM, respectively.

`COc1cc(C(=O)NC(C)(C)CCN(C)C)ccc1-c1cc2nccc(-c3ccc(NC4CCOCC4)c(C#N)c3)c2o1` [Compound 514, 4-{7-[3-Cyano-4-(tetrahydro-pyran-4-ylamino)-phenyl]-furo[3,2-b]pyridin-2-yl}-N-(3-dimethylamino-1,1-dimethyl-propyl)-3-methoxy-benzamide]: the IC50 (in experiment [1] (Homo sapiens); on TBK1; at IKKε) was below 100 nM throughout.

In the case of `COc1cc(C(=O)NC2CN3CCC2CC3)ccc1-c1cc2nccc(-c3ccc(N4CC[C@H](F)C4)c(C#N)c3)c2o1` (stereo partly drawn) [Compound 72, N-(1-Aza-bicyclo[2.2.2]oct-3-yl)-4-{7-[3-cyano-4-((S)-3-fluoro-pyrrolidin-1-yl)-phenyl]-furo[3,2-b]pyridin-2-yl}-3-methoxy-benzamide], the IC50 in experiment [1] (Homo sapiens) was 100 to 1000 nM; on TBK1, below 100 nM; at IKKε it was below 100 nM.

Consider `COc1cc(C(=O)N(C)C)ccc1-c1cc2nccc(-c3ccc(N4CC[C@H](F)C4)c(C#N)c3)c2o1` [Compound 23, 4-{7-[3-Cyano-4-((S)-3-fluoro-pyrrolidin-1-yl)-phenyl]-furo[3,2-b]pyridin-2-yl}-3-methoxy-N,N-dimethyl-benzamide], for which the half-inhibitory concentration (IC50) was 100 to 1000 nM in experiment [1] (Homo sapiens), below 100 nM at TBK1 and below 100 nM at IKKε.

For `COc1cc(C(=O)N(C)C)ccc1-c1cc2nccc(-c3ccc(OC4CCNCC4)c(C#N)c3)c2o1` [Compound 158, 4-{7-[3-Cyano-4-(piperidin-4-yloxy)-phenyl]-furo[3,2-b]pyridin-2-yl}-3-methoxy-N,N-dimethyl-benzamide Hydrochloride], the 50% inhibitory concentration (IC50) was 100 to 1000 nM in experiment [1] (Homo sapiens), 100 to 1000 nM on TBK1 and below 100 nM at IKKε.

On to `COc1cc(C(=O)N(C)C)cnc1-c1cc2nccc(-c3ccc(N4CCC(F)C4)c(C#N)n3)c2o1` (stereo not drawn) [Compound 488, 2-{7-[6-Cyano-6-5-(3-fluoro-pyrrolidin-1-yl)-pyridin-3-yl]-furo[3,2-b]pyridin-2-yl}-5-methoxy-N,N-dimethyl-nicotinamide], for which the IC50 in experiment [1] (Homo sapiens) was 100 to 1000 nM; on TBK1, below 100 nM; at IKKε, below 100 nM.
